The NIST ThermoML archive (doi:10.1016/j.jct.2014.12.020)

Test: wn = mass fraction of the nth substance listed
Settings: 100 kPa, Liquid; for viscosity: Concentric cylinders viscometry; for mass density: Vibrating tube method

C[C@H](O)C(=O)[O-].C[N+](C)(C)CCO + O
Settings | mass density [kg/m3] | viscosity [mPa·s]
293.15 K, w2 = 0.004 | 1140.9 | 3661.3
293.15 K, w2 = 0.011 | 1142 | 2703
293.15 K, w2 = 0.02 | 1142.3 | 1543.3
293.15 K, w2 = 0.029 | 1141.9 | 1408.3
293.15 K, w2 = 0.045 | 1140.9 | 888
293.15 K, w2 = 0.066 | 1139.9 | 546.3
293.15 K, w2 = 0.077 | 1139.3 | 421.4
293.15 K, w2 = 0.121 | 1137 | 201.3
293.15 K, w2 = 0.167 | 1135.4 | 119.8
293.15 K, w2 = 0.218 | 1131.4 | 70.5
293.15 K, w2 = 0.24 | 1127.4 | 48
298.15 K, w2 = 0.004 | 1137.8 | 2310.1
298.15 K, w2 = 0.011 | 1138.8 | 1732.1
298.15 K, w2 = 0.02 | 1139 | 1021
298.15 K, w2 = 0.029 | 1138.5 | 936.5
298.15 K, w2 = 0.045 | 1137.5 | 604.3
298.15 K, w2 = 0.066 | 1136.5 | 380.6
298.15 K, w2 = 0.077 | 1136 | 297.1
298.15 K, w2 = 0.121 | 1133.7 | 146.7
298.15 K, w2 = 0.167 | 1132.1 | 89.1
298.15 K, w2 = 0.218 | 1128.1 | 53.6
298.15 K, w2 = 0.24 | 1124.1 | 37.1
303.15 K, w2 = 0.004 | 1134.7 | 1510.1
303.15 K, w2 = 0.011 | 1135.6 | 1150.1
303.15 K, w2 = 0.02 | 1135.7 | 697.5
303.15 K, w2 = 0.029 | 1135.2 | 642.3
303.15 K, w2 = 0.045 | 1134.2 | 423.6
303.15 K, w2 = 0.066 | 1133.3 | 272.7
303.15 K, w2 = 0.077 | 1132.7 | 215.2
303.15 K, w2 = 0.121 | 1130.5 | 109.4
303.15 K, w2 = 0.167 | 1128.9 | 67.8
303.15 K, w2 = 0.218 | 1124.8 | 41.6
303.15 K, w2 = 0.24 | 1120.8 | 29.2
308.15 K, w2 = 0.004 | 1131.7 | 1019.4
308.15 K, w2 = 0.011 | 1132.4 | 787.6
308.15 K, w2 = 0.02 | 1132.4 | 490.6
308.15 K, w2 = 0.029 | 1131.8 | 453.5
308.15 K, w2 = 0.045 | 1130.9 | 305
308.15 K, w2 = 0.066 | 1130.1 | 200.4
308.15 K, w2 = 0.077 | 1129.6 | 159.8
308.15 K, w2 = 0.121 | 1127.3 | 83.5
308.15 K, w2 = 0.167 | 1125.8 | 52.6
308.15 K, w2 = 0.218 | 1121.6 | 32.9
308.15 K, w2 = 0.24 | 1117.6 | 23.4
313.15 K, w2 = 0.004 | 1128.6 | 708.4
313.15 K, w2 = 0.011 | 1129.1 | 554.7
313.15 K, w2 = 0.02 | 1129.2 | 354.1
313.15 K, w2 = 0.029 | 1128.6 | 328.4
313.15 K, w2 = 0.045 | 1127.8 | 225
313.15 K, w2 = 0.066 | 1126.9 | 150.7
313.15 K, w2 = 0.077 | 1126.4 | 121.4
313.15 K, w2 = 0.121 | 1124.2 | 65
313.15 K, w2 = 0.167 | 1122.6 | 41.7
313.15 K, w2 = 0.218 | 1118.5 | 26.4
313.15 K, w2 = 0.24 | 1114.5 | 18.9
318.15 K, w2 = 0.004 | 1125.4 | 505.4
318.15 K, w2 = 0.011 | 1125.9 | 400.7
318.15 K, w2 = 0.02 | 1126.1 | 261.6
318.15 K, w2 = 0.029 | 1125.5 | 243.5
318.15 K, w2 = 0.045 | 1124.7 | 169.7
318.15 K, w2 = 0.066 | 1123.8 | 115.6
318.15 K, w2 = 0.077 | 1123.3 | 94
318.15 K, w2 = 0.121 | 1121 | 51.5
318.15 K, w2 = 0.167 | 1119.5 | 33.6
318.15 K, w2 = 0.218 | 1115.2 | 21.6
318.15 K, w2 = 0.24 | 1111.2 | 15.8
323.15 K, w2 = 0.004 | 1122.3 | 369.4
323.15 K, w2 = 0.011 | 1122.7 | 296.2
323.15 K, w2 = 0.02 | 1123 | 197.4
323.15 K, w2 = 0.029 | 1122.4 | 184.4
323.15 K, w2 = 0.045 | 1121.6 | 130.6
323.15 K, w2 = 0.066 | 1120.8 | 90.4
323.15 K, w2 = 0.077 | 1120.2 | 74.1
323.15 K, w2 = 0.121 | 1118 | 41.5
323.15 K, w2 = 0.167 | 1116.3 | 27.4
323.15 K, w2 = 0.218 | 1112 | 17.9
323.15 K, w2 = 0.24 | 1108 | 13.2
328.15 K, w2 = 0.004 | 1119.2 | 275.9
328.15 K, w2 = 0.011 | 1119.8 | 223.5
328.15 K, w2 = 0.02 | 1120.1 | 151.8
328.15 K, w2 = 0.029 | 1119.4 | 142.3
328.15 K, w2 = 0.045 | 1118.6 | 102.3
328.15 K, w2 = 0.066 | 1117.7 | 71.9
328.15 K, w2 = 0.077 | 1117.1 | 59.3
328.15 K, w2 = 0.121 | 1114.9 | 33.9
328.15 K, w2 = 0.167 | 1113.2 | 22.7
328.15 K, w2 = 0.218 | 1108.8 | 15
328.15 K, w2 = 0.24 | 1104.8 | 11.2
333.15 K, w2 = 0.004 | 1116.3 | 210.2
333.15 K, w2 = 0.011 | 1116.8 | 171.9
333.15 K, w2 = 0.02 | 1117.1 | 118.9
333.15 K, w2 = 0.029 | 1116.5 | 111.7
333.15 K, w2 = 0.045 | 1115.6 | 81.4
333.15 K, w2 = 0.066 | 1114.7 | 58
333.15 K, w2 = 0.077 | 1114.1 | 48.2
333.15 K, w2 = 0.121 | 1111.8 | 28.1
333.15 K, w2 = 0.167 | 1110 | 19
333.15 K, w2 = 0.218 | 1105.6 | 12.7
333.15 K, w2 = 0.24 | 1101.5 | 9.5
338.15 K, w2 = 0.004 | 1113.3 | 163.1
338.15 K, w2 = 0.011 | 1114 | 134.6
338.15 K, w2 = 0.02 | 1114.2 | 94.6
338.15 K, w2 = 0.029 | 1113.6 | 89
338.15 K, w2 = 0.045 | 1112.6 | 65.8
338.15 K, w2 = 0.066 | 1111.8 | 47.5
338.15 K, w2 = 0.077 | 1111.2 | 39.7
338.15 K, w2 = 0.121 | 1108.6 | 23.5
338.15 K, w2 = 0.167 | 1106.8 | 16.1
338.15 K, w2 = 0.218 | 1102.4 | 11
338.15 K, w2 = 0.24 | 1098.3 | 8.3
343.15 K, w2 = 0.004 | 1110.2 | 128.7
343.15 K, w2 = 0.011 | 1111 | 106.9
343.15 K, w2 = 0.02 | 1111.3 | 76.3
343.15 K, w2 = 0.029 | 1110.7 | 72
343.15 K, w2 = 0.045 | 1109.8 | 53.8
343.15 K, w2 = 0.066 | 1108.8 | 39.3
343.15 K, w2 = 0.077 | 1108.1 | 33.1
343.15 K, w2 = 0.121 | 1105.5 | 19.9
343.15 K, w2 = 0.167 | 1103.7 | 13.8
343.15 K, w2 = 0.218 | 1099.2 | 9.5
343.15 K, w2 = 0.24 | 1095 | 7.3

CCCCCC(=O)[O-].C[N+](C)(C)CCO [2-hydroxy-N,N,N-trimethylethanaminium hexanoate] + O
Settings | mass density, w2 = 0.058 [kg/m3] | mass density, w2 = 0.091 [kg/m3] | mass density, w2 = 0.161 [kg/m3] | mass density, w2 = 0.198 [kg/m3] | viscosity, w2 = 0.058 [mPa·s] | viscosity, w2 = 0.091 [mPa·s] | viscosity, w2 = 0.161 [mPa·s] | viscosity, w2 = 0.198 [mPa·s]
293.15 K | 1018 | 1021 | 1026 | 1026 | 1187.4 | 640.3 | 202.1 | 166.8
298.15 K | 1015 | 1018 | 1023 | 1023 | 831.9 | 462.6 | 151.2 | 125.3
303.15 K | 1012 | 1015 | 1020 | 1021 | 598.1 | 340.7 | 114.8 | 95.6
308.15 K | 1009 | 1012 | 1017 | 1018 | 439 | 255.5 | 88.6 | 74.1
313.15 K | 1007 | 1009 | 1014 | 1015 | 328.4 | 195.3 | 69.7 | 58.4
318.15 K | 1004 | 1006 | 1011 | 1012 | 249.1 | 150.8 | 55.1 | 46.4
323.15 K | 1001 | 1003 | 1008 | 1009 | 192.3 | 118.4 | 44.3 | 37.5
328.15 K | 998 | 1001 | 1005 | 1006 | 150.4 | 94.1 | 36.1 | 30.6
333.15 K | 996 | 998 | 1003 | 1003 | 119.5 | 76 | 29.8 | 25.3
338.15 K | 993 | 995 | 1000 | 1000 | 95.6 | 61.7 | 24.7 | 21
343.15 K | 990 | 992 | 997 | 997 | 77.6 | 50.7 | 20.7 | 17.7
